According to article PMC10385282, “Luteolin Protects Pancreatic β Cells against Apoptosis through Regulation of Autophagy and ROS Clearance” (Pharmaceuticals, 2023):

Biological target: T1, Drak2 (death-associated protein kinase-related apoptosis-inducing kinase-2) (Homo sapiens, UniProt O94768)
T1 construct: gene STK17B
T1 sequence (O94768 1-372): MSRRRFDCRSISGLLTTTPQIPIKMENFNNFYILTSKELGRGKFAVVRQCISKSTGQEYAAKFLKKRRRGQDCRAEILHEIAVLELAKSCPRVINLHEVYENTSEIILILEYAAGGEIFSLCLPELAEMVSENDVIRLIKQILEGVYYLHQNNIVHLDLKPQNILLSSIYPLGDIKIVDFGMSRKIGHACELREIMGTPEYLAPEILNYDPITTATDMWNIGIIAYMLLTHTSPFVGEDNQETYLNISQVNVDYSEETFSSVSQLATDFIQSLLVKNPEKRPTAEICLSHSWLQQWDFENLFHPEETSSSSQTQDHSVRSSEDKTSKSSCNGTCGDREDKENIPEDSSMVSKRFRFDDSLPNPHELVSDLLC
Assay: biochemical
Parameters: ADP-Glo kinase assay, luminescence, residual Drak2 activity at 20 uM compound
Details: read-out: % of control remaining
Method: ADP-Glo kits (Promega, Madison, WI; #V6903) were used for Drak2 inhibitor screening. Drak2 activity was measured and calculated from the amount of ADP generated from the enzyme reaction. The compounds were dissolved in DMSO and diluted to the indicated concentration for the screening assay. Drak2 and substrate ATP were diluted in 1X Buffer (HEPES 50 mM (pH 7.0), NaN3 0.02%, Orthovanadate 0.1 mM, 5 mM MgCl2, 0.01% (w/v) bovine serum albumin). The 5 µL kinase reaction was performed using 1X kinase buffer that contained 1 μL of compound, 2 μL of Drak2 (160 nM) and 2 μL of substrate ATP (20 μM), and incubated for 2 h at room temperature. Then, 2.5 μL of ADP-Glo™ Reagent was added to each reaction and incubated for 2 h at room temperature to deplete the remaining ATP. Finally, 5 μL of Kinase Detection Reagent was added to each reaction to convert ADP to ATP via the luciferase reaction, which was detected using an EnVision multilabel plate reader. 22b was used as a positive control in the assay. Our previous work validated that Drak2 inhibitors can prevent pancreatic β cells from undergoing lipotoxicity-induced cell apoptosis. Therefore, we established a kinase activity detection assay in vitro using the ADP-Glo^TM Kinase Assay kit (Promega, Madison, WI, USA) and screened the Natural Product and Derivatives Focus Library to identify small molecules that can inhibit Drak2 activity. […]

## O=c1cc(-c2ccc(O)c(O)c2)oc2cc(O)cc(O)c12 [luteolin]
  remaining activity at 20 µM: 7.74 ± 1.75%
